Data: publication PMC5218480 (PLoS ONE, 2017)

Tested on: MV-4-11 cells
Experiment: Gene expression microarray analysis (Affymetrix PrimeView) and GSEA
Assay type: cell-based, human
Parameters: RFU PODN (11730768_x_at) / Fold change /veh PODN (11730768_x_at) / RFU LINC00158 (11744669_a_at) / Fold change /veh LINC00158 (11744669_a_at) / RFU DUSP10 (11751237_a_at) / Fold change /veh DUSP10 (11751237_a_at) / RFU ID3 (11757404_x_at) / Fold change /veh ID3 (11757404_x_at) / RFU PLEKHG5 (11737974_s_at) / Fold change /veh PLEKHG5 (11737974_s_at) / RFU LRRC4B (11730491_at) / Fold change /veh LRRC4B (11730491_at) / RFU GIMAP4 (11747438_a_at) / Fold change /veh GIMAP4 (11747438_a_at) / RFU KRT8 (11758183_x_at) / Fold change /veh KRT8 (11758183_x_at) / RFU CNN1 (11734310_a_at) / Fold change /veh CNN1 (11734310_a_at) / RFU VPS37D (11726825_at) / Fold change /veh VPS37D (11726825_at) / RFU C10orf10 (11716522_x_at) / Fold change /veh C10orf10 (11716522_x_at) / RFU KIR2DL2 /// KIR2DL4 /// KIR2DL5A /// KIR2DL5B /// KIR2DS1 /// KIR2DS2 /// KIR2DS3 /// KIR2DS4 /// KIR3DL3 /// KIR3DL3 /// KIR3DS1 (11738374_at) / Fold change /veh KIR2DL2 /// KIR2DL4 /// KIR2DL5A /// KIR2DL5B /// KIR2DS1 /// KIR2DS2 /// KIR2DS3 /// KIR2DS4 /// KIR3DL3 /// KIR3DL3 /// KIR3DS1 (11738374_at) / RFU C1QL1 (11718748_at) / Fold change /veh C1QL1 (11718748_at) / RFU TMPRSS4 (11747572_a_at) / Fold change /veh TMPRSS4 (11747572_a_at) / RFU HAMP (11756126_x_at) / Fold change /veh HAMP (11756126_x_at) / RFU RNFT2 (11725882_a_at) / Fold change /veh RNFT2 (11725882_a_at) / RFU NR4A2 (11747474_a_at) / Fold change /veh NR4A2 (11747474_a_at) / RFU ABCC12 (11746883_a_at) / Fold change /veh ABCC12 (11746883_a_at) / RFU TMEM136 (11760407_x_at) / Fold change /veh TMEM136 (11760407_x_at) / RFU CLDN22 /// WWC2 (11732394_at) / Fold change /veh CLDN22 /// WWC2 (11732394_at) / RFU HLA-DPB1 (11760878_x_at) / Fold change /veh HLA-DPB1 (11760878_x_at) / RFU SPINT1 (11716480_a_at) / Fold change /veh SPINT1 (11716480_a_at) / RFU GAP43 (11754022_s_at) / Fold change /veh GAP43 (11754022_s_at) / RFU A4GNT (11735810_at) / Fold change /veh A4GNT (11735810_at) / RFU PRB3 (11715151_x_at) / Fold change /veh PRB3 (11715151_x_at) / RFU TUBB4B (11761932_at) / Fold change /veh TUBB4B (11761932_at) / RFU CAPN14 (11732068_a_at) / Fold change /veh CAPN14 (11732068_a_at) / RFU TMCC2 (11721928_a_at) / Fold change /veh TMCC2 (11721928_a_at) / RFU IRGQ (11745062_a_at) / Fold change /veh IRGQ (11745062_a_at) / RFU FAM174B (11720279_a_at) / Fold change /veh FAM174B (11720279_a_at) / RFU TMPRSS4 (11748680_a_at) / Fold change /veh TMPRSS4 (11748680_a_at) / RFU FAM212B (11763350_a_at) / Fold change /veh FAM212B (11763350_a_at) / RFU PLEKHG5 (11743358_a_at) / Fold change /veh PLEKHG5 (11743358_a_at) / RFU ZSCAN30 (11745921_a_at) / Fold change /veh ZSCAN30 (11745921_a_at) / RFU CMKLR1 (11741424_a_at) / Fold change /veh CMKLR1 (11741424_a_at) / RFU LOC101060620 /// MAPK8IP1 (11723275_at) / Fold change /veh LOC101060620 /// MAPK8IP1 (11723275_at) / RFU SPTSSB (11747773_x_at) / Fold change /veh SPTSSB (11747773_x_at) / RFU PRSS12 (11739890_at) / Fold change /veh PRSS12 (11739890_at) / RFU BIN1 (11741810_x_at) / Fold change /veh BIN1 (11741810_x_at) / RFU WNT11 (11732464_a_at) / Fold change /veh WNT11 (11732464_a_at) / RFU C10orf10 (11716521_a_at) / Fold change /veh C10orf10 (11716521_a_at) / RFU C5orf56 (11738089_at) / Fold change /veh C5orf56 (11738089_at) / RFU CYB561 (11721691_x_at) / Fold change /veh CYB561 (11721691_x_at) / RFU ANKRD19P (11752326_a_at) / Fold change /veh ANKRD19P (11752326_a_at) / RFU OR2T12 /// OR2T33 /// OR2T8 (11738714_s_at) / Fold change /veh OR2T12 /// OR2T33 /// OR2T8 (11738714_s_at) / RFU VCAN (11748164_a_at) / Fold change /veh VCAN (11748164_a_at) / RFU JSRP1 (11732532_at) / Fold change /veh JSRP1 (11732532_at) / RFU KRTAP10-11 (11738290_x_at) / Fold change /veh KRTAP10-11 (11738290_x_at) / RFU MYO3A (11730013_a_at) / Fold change /veh MYO3A (11730013_a_at) / RFU EBF3 (11725865_a_at) / Fold change /veh EBF3 (11725865_a_at) / RFU CAMK2N1 (11719241_x_at) / Fold change /veh CAMK2N1 (11719241_x_at) / RFU C5orf56 (11738088_a_at) / Fold change /veh C5orf56 (11738088_a_at) / RFU OLFML3 (11715873_a_at) / Fold change /veh OLFML3 (11715873_a_at) / RFU LOC100653217 /// NTM (11731650_a_at) / Fold change /veh LOC100653217 /// NTM (11731650_a_at) / RFU MAPK11 (11762145_a_at) / Fold change /veh MAPK11 (11762145_a_at) / RFU FIZ1 (11724087_x_at) / Fold change /veh FIZ1 (11724087_x_at) / RFU OASL (11726364_x_at) / Fold change /veh OASL (11726364_x_at) / RFU SOX15 (11748057_x_at) / Fold change /veh SOX15 (11748057_x_at) / RFU CD79A (11719716_a_at) / Fold change /veh CD79A (11719716_a_at) / RFU HIST1H1D (11736915_at) / Fold change /veh HIST1H1D (11736915_at) / RFU CASKIN2 (11723855_a_at) / Fold change /veh CASKIN2 (11723855_a_at) / RFU LOC730098 (11760151_x_at) / Fold change /veh LOC730098 (11760151_x_at) / RFU OR4N2 (11742367_at) / Fold change /veh OR4N2 (11742367_at) / RFU PRRT2 (11749266_a_at) / Fold change /veh PRRT2 (11749266_a_at) / RFU SNX32 (11753110_a_at) / Fold change /veh SNX32 (11753110_a_at) / RFU CDHR5 (11726645_a_at) / Fold change /veh CDHR5 (11726645_a_at) / RFU RCAN1 (11760418_a_at) / Fold change /veh RCAN1 (11760418_a_at) / RFU FAM167A (11723789_a_at) / Fold change /veh FAM167A (11723789_a_at) / RFU FAM26E (11764081_at) / Fold change /veh FAM26E (11764081_at) / RFU ISYNA1 (11749810_s_at) / Fold change /veh ISYNA1 (11749810_s_at) / RFU ACY1 (11761880_at) / Fold change /veh ACY1 (11761880_at) / RFU 11764098_at / Fold change /veh 11764098_at / RFU SAMD14 (11745864_x_at) / Fold change /veh SAMD14 (11745864_x_at) / RFU NPB (11741838_a_at) / Fold change /veh NPB (11741838_a_at) / RFU TMPRSS6 (11731388_a_at) / Fold change /veh TMPRSS6 (11731388_a_at) / RFU KRTAP10-2 (11738614_at) / Fold change /veh KRTAP10-2 (11738614_at) / RFU ARHGAP8 /// PRR5-ARHGAP8 (11727945_x_at) / Fold change /veh ARHGAP8 /// PRR5-ARHGAP8 (11727945_x_at) / RFU KRTAP5-7 /// NADSYN1 (11734609_at) / Fold change /veh KRTAP5-7 /// NADSYN1 (11734609_at) / RFU RASL12 (11751679_a_at) / Fold change /veh RASL12 (11751679_a_at) / RFU CDKN2B (11736163_a_at) / Fold change /veh CDKN2B (11736163_a_at) / RFU PRF1 (11729649_at) / Fold change /veh PRF1 (11729649_at) / RFU, ZNF638 /// ZNF638-IT1 / Fold change vs veh, ZNF638 /// ZNF638-IT1 / RFU, PANK3 / Fold change vs veh, PANK3 / RFU, SH3YL1 / Fold change vs veh, SH3YL1 / RFU, ZEB2 / Fold change vs veh, ZEB2 / RFU, NRIP1 / Fold change vs veh, NRIP1 / RFU, PTTG1IP / Fold change vs veh, PTTG1IP / RFU, CAPN2 / Fold change vs veh, CAPN2 / RFU, MED14 / Fold change vs veh, MED14 / RFU, SNORA58 / Fold change vs veh, SNORA58 / RFU, C1orf63 / Fold change vs veh, C1orf63 / RFU, LRRFIP1 / Fold change vs veh, LRRFIP1 / RFU, NDUFAF7 / Fold change vs veh, NDUFAF7 / RFU, SLC12A2 / Fold change vs veh, SLC12A2 / RFU, IBTK / Fold change vs veh, IBTK / RFU, ESF1 / Fold change vs veh, ESF1 / Fold change vs veh, TMEM50B / RFU, TAOK1 / Fold change vs veh, TAOK1 / RFU, ACBD3 / Fold change vs veh, ACBD3 / RFU, TMA16 / Fold change vs veh, TMA16 / RFU, RWDD3 / Fold change vs veh, RWDD3 / RFU, BCAT1 / Fold change vs veh, BCAT1 / RFU, EDEM3 / Fold change vs veh, EDEM3 / RFU, TMEM33 / Fold change vs veh, TMEM33 / RFU, WDR75 / Fold change vs veh, WDR75 / RFU, AHCTF1 / Fold change vs veh, AHCTF1 / RFU, TFRC / Fold change vs veh, TFRC / RFU, ZDHHC17 / Fold change vs veh, ZDHHC17 / RFU, NOM1 / Fold change vs veh, NOM1 / RFU, ARL8B / Fold change vs veh, ARL8B / RFU, ZBTB11 / Fold change vs veh, ZBTB11 / RFU, TAMM41 / Fold change vs veh, TAMM41 / RFU, KIAA1704 /// LOC100996395 / Fold change vs veh, KIAA1704 /// LOC100996395 / RFU, ING1 / Fold change vs veh, ING1 / RFU, TRMT61B / Fold change vs veh, TRMT61B / RFU, FUBP3 / Fold change vs veh, FUBP3 / RFU, TP53 / Fold change vs veh, TP53 / RFU, TNKS2 / Fold change vs veh, TNKS2 / RFU, ZFP14 / Fold change vs veh, ZFP14 / RFU, ACTR2 / Fold change vs veh, ACTR2 / RFU, PPP3R1 / Fold change vs veh, PPP3R1 / RFU, PIK3R1 / Fold change vs veh, PIK3R1 / RFU, HNRNPA1 / Fold change vs veh, HNRNPA1 / RFU, RNF170 / Fold change vs veh, RNF170 / RFU, ZNF28 / Fold change vs veh, ZNF28 / RFU, RNGTT / Fold change vs veh, RNGTT / RFU, OGT / Fold change vs veh, OGT / RFU, BRD1 / Fold change vs veh, BRD1 / RFU, MARS / Fold change vs veh, MARS / RFU, ZNF655 / Fold change vs veh, ZNF655 / RFU, FAHD1 / Fold change vs veh, FAHD1 / RFU, BDP1 / Fold change vs veh, BDP1 / RFU, LRRCC1 / Fold change vs veh, LRRCC1 / RFU, ARID1A / Fold change vs veh, ARID1A / RFU, ZNF146 / Fold change vs veh, ZNF146 / RFU, ZNF330 / Fold change vs veh, ZNF330 / RFU, GPN3 / Fold change vs veh, GPN3 / RFU, C9orf123 / Fold change vs veh, C9orf123 / RFU, N4BP2L2 / Fold change vs veh, N4BP2L2 / RFU, ARFIP1 / Fold change vs veh, ARFIP1 / RFU, FAM179B / Fold change vs veh, FAM179B / RFU, BCL10 / Fold change vs veh, BCL10 / RFU, UHRF1BP1L / Fold change vs veh, UHRF1BP1L / RFU, BET1 / Fold change vs veh, BET1 / RFU, CNOT2 / Fold change vs veh, CNOT2 / RFU, ZNF268 / Fold change vs veh, ZNF268 / Fold change vs veh, ZNF507 / RFU, DGCR2 / Fold change vs veh, DGCR2 / RFU, WDSUB1 / Fold change vs veh, WDSUB1 / Fold change vs veh, HSP90B1 /// MIR3652 / RFU, ADSS / Fold change vs veh, ADSS / RFU, GK / Fold change vs veh, GK / RFU, ZNF148 / Fold change vs veh, ZNF148 / RFU, TAF9 / Fold change vs veh, TAF9 / RFU, SLC1A5 / Fold change vs veh, SLC1A5 / RFU, SLMO2 / Fold change vs veh, SLMO2 / RFU, ABCC4 / Fold change vs veh, ABCC4 / RFU, LOC101060439 /// RAP1B / Fold change vs veh, LOC101060439 /// RAP1B / RFU, RFX7 / Fold change vs veh, RFX7 / RFU, GTPBP10 / Fold change vs veh, GTPBP10 / RFU, CNEP1R1 / Fold change vs veh, CNEP1R1 / RFU, BIVM-ERCC5 /// ERCC5 / Fold change vs veh, BIVM-ERCC5 /// ERCC5 / RFU, ILF3 / Fold change vs veh, ILF3 / RFU 11762660_at / Fold change /veh 11762660_at / RFU VCAN (11757783_s_at) / Fold change /veh VCAN (11757783_s_at) / RFU DDX43 (11728927_at) / Fold change /veh DDX43 (11728927_at) / RFU KRT8 (11758188_x_at) / Fold change /veh KRT8 (11758188_x_at) / RFU NKD1 (11759106_at) / Fold change /veh NKD1 (11759106_at) / RFU SRD5A1 (11742802_a_at) / Fold change /veh SRD5A1 (11742802_a_at) / RFU TPSAB1 /// TPSB2 (11721975_s_at) / Fold change /veh TPSAB1 /// TPSB2 (11721975_s_at) / RFU GSTM3 (11746129_a_at) / Fold change /veh GSTM3 (11746129_a_at) / RFU IL23R (11737362_x_at) / Fold change /veh IL23R (11737362_x_at) / RFU TMEM51 (11727254_a_at) / Fold change /veh TMEM51 (11727254_a_at) / RFU PIWIL2 (11732686_x_at) / Fold change /veh PIWIL2 (11732686_x_at) / RFU ORM1 (11744905_x_at) / Fold change /veh ORM1 (11744905_x_at) / RFU CCDC152 (11743942_at) / Fold change /veh CCDC152 (11743942_at) / RFU ECM1 (11717891_a_at) / Fold change /veh ECM1 (11717891_a_at) / RFU IL23R (11748794_a_at) / Fold change /veh IL23R (11748794_a_at) / RFU TNFAIP8L3 (11732012_x_at) / Fold change /veh TNFAIP8L3 (11732012_x_at) / RFU MBOAT4 (11741988_at) / Fold change /veh MBOAT4 (11741988_at) / RFU 11764193_at / Fold change /veh 11764193_at / RFU TMEM53 (11763286_at) / Fold change /veh TMEM53 (11763286_at) / RFU MAGEB2 (11727129_at) / Fold change /veh MAGEB2 (11727129_at) / RFU TMEM200A (11744735_a_at) / Fold change /veh TMEM200A (11744735_a_at) / RFU CCDC152 (11751479_a_at) / Fold change /veh CCDC152 (11751479_a_at) / RFU FAM211A (11726209_a_at) / Fold change /veh FAM211A (11726209_a_at) / RFU RGS16 (11746705_a_at) / Fold change /veh RGS16 (11746705_a_at) / RFU VCAN (11755009_s_at) / Fold change /veh VCAN (11755009_s_at) / RFU RHOB (11743442_s_at) / Fold change /veh RHOB (11743442_s_at) / RFU RGS16 (11720943_a_at) / Fold change /veh RGS16 (11720943_a_at) / RFU RGS16 (11720944_at) / Fold change /veh RGS16 (11720944_at) / RFU, VPS4B / Fold change vs veh, VPS4B / RFU, CREB1 / Fold change vs veh, CREB1 / RFU, DNAJC13 / Fold change vs veh, DNAJC13 / RFU, GNAQ / Fold change vs veh, GNAQ / RFU, CDK5R1 / Fold change vs veh, CDK5R1 / RFU, ZRANB3 / Fold change vs veh, ZRANB3 / RFU, CUL4A / Fold change vs veh, CUL4A / RFU, CCNY / Fold change vs veh, CCNY / RFU, UFL1 / Fold change vs veh, UFL1 / RFU, COG3 / Fold change vs veh, COG3 / RFU, DIAPH2 / Fold change vs veh, DIAPH2 / RFU, SKA2 / Fold change vs veh, SKA2 / RFU, AFF3 / Fold change vs veh, AFF3 / RFU, LMF1 / Fold change vs veh, LMF1 / RFU, IPO11 / Fold change vs veh, IPO11 / RFU, DFFB / Fold change vs veh, DFFB / RFU, FOXP1 / Fold change vs veh, FOXP1 / RFU, CARD8 / Fold change vs veh, CARD8 / RFU, STRN3 / Fold change vs veh, STRN3 / RFU, ADK / Fold change vs veh, ADK / RFU, RASSF2 / Fold change vs veh, RASSF2 / RFU, WIPF1 / Fold change vs veh, WIPF1 / RFU, LARP1B / Fold change vs veh, LARP1B / RFU, RASA1 / Fold change vs veh, RASA1 / RFU, RB1 / Fold change vs veh, RB1 / RFU, PPFIA1 / Fold change vs veh, PPFIA1 / RFU, MAT2A / Fold change vs veh, MAT2A / RFU, CCT5 / Fold change vs veh, CCT5 / RFU, WDR92 / Fold change vs veh, WDR92 / RFU, CUX1 / Fold change vs veh, CUX1 / RFU, TTC7A / Fold change vs veh, TTC7A / RFU, TMEM135 / Fold change vs veh, TMEM135 / RFU, DEPTOR / Fold change vs veh, DEPTOR / RFU, CPM / Fold change vs veh, CPM / RFU, DNAJB6 / Fold change vs veh, DNAJB6 / RFU, CACNA2D3 / Fold change vs veh, CACNA2D3 / RFU, DTX4 / Fold change vs veh, DTX4 / RFU, TFCP2 / Fold change vs veh, TFCP2 / RFU, GMCL1 /// GMCL1P1 / Fold change vs veh, GMCL1 /// GMCL1P1 / RFU, AEBP2 / Fold change vs veh, AEBP2 / RFU, SNHG1 /// SNORD22 /// SNORD25 /// SNORD26 /// SNORD27 /// SNORD28 /// SNORD29 /// SNORD31 / Fold change vs veh, SNHG1 /// SNORD22 /// SNORD25 /// SNORD26 /// SNORD27 /// SNORD28 /// SNORD29 /// SNORD31 / Fold change (Aza/veh), C12orf56 (ProbeSet 11735607_a_at) / Fold change (ACY-1035/veh), C12orf56 (ProbeSet 11735607_a_at) / Fold change (Aza/veh), FGFR1OP (ProbeSet 11751329_s_at) / Fold change (ACY-1035/veh), FGFR1OP (ProbeSet 11751329_s_at) / Fold change (Aza/veh), VPS36 (ProbeSet 11739960_a_at) / Fold change (ACY-1035/veh), VPS36 (ProbeSet 11739960_a_at) / RFU SYPL1 (11715823_x_at) / Fold change /veh SYPL1 (11715823_x_at) / RFU IGFBP7 (11715501_s_at) / Fold change /veh IGFBP7 (11715501_s_at) / RFU REEP3 (11722064_at) / Fold change /veh REEP3 (11722064_at) / RFU IGLL1 (11728026_x_at) / Fold change /veh IGLL1 (11728026_x_at): dose or concentration left out as unconfirmed
Settings: MV-4-11 cells, 48 hours

Nc1ncn([C@@H]2O[C@H](CO)[C@@H](O)[C@H]2O)c(=O)n1 [azacitidine]
Fold change /veh TNFAIP8L3 (11732012_x_at): 1.33
